Series [1] deals with Mutant TERT. Kind of series: HepG2 hTERT mRNA assay (qPCR). The settings on record: Homo sapiens; HepG2 cells (mutated TERT), 48 hours, TERT mRNA via qPCR. It is filed as cell-based, human. The procedure:
(§1) HepG2 cells (hepatocyte carcinoma (HCC) cells; with mutated TERT) or HEK293T cells (with wild type (wt) TERT) were seeded at 4,000 cells/well in 96-well plates. The following day, test compounds were added to cells for at concentrations of 25 uM, 12.5 uM, 6.25 uM, 3.125 uM, 1.563 uM, 0.781 uM, 0.391 uM, 0.195 uM, 0.098 uM or vehicle control (0.1% DMSO). Each condition was tested in three replicate wells. 48 hours post drug addition, the cells were harvested for RNA using the 96-Magmax RNA Isolation kit (Cat. No. AM1830). RNA was converted to cDNA using the Superscript III First strand cDNA synthesis kit (Cat. No. 18080051). RNA and cDNA concentration and quality were determined using the NanoQuant nucleic acid quantification method. 500 ng cDNA from each sample was used to detect TERT mRNA via qPCR. GUSB was also measured as an internal control and fold change to vehicle control was determined using the delta CT method.
(Quantitative PCR measures a nucleic acid by following its amplification.)

Series [2] has as its system HepG2 cells. Kind of series: HepG2 cytostatic. It is filed as cell-based, human. The following applies: Homo sapiens.
For series [3], the system named is wt TERT. Kind of series: HEK293T hTERT mRNA assay (qPCR). Format: cell-based, human. The settings on record: for pIC50 / IC50: Homo sapiens; for pIC50: HEK-293T, wild type TERT, read-out: wt TERT IC50; for IC50: read-out: wt TERT IC50 uM HEK293. On the procedure: as §1
Series [4] deals with HEK293 cells. Kind of series: HEK293 cytostatic. It is filed as cell-based, human. The following applies: read-out: wt Tert IC50 uM HEK293 cytostatic.
The subject of series [5] is GBM39 cells orthotopic xenograft. Kind of series: GBM orthotopic xenograft survival study. It is filed as in vivo, mice. The following applies: oral gavage, 14 days of dosing. On the procedure:
GBM39 cells, a human PDX model of GBM, were selected for this study. GBM39 cells were stably transduced (MOI=3) with Firefly Luciferase Lentifect Purified Lentiviral Particles (Genecopoiea, #LPP-FLUC-Lv105) and were verified to be expressing luciferase stably and at similar levels 48 h pre-xenograft. A total of 1-4×10E4 luciferase-expressing PDX cells in 4 uL volume were injected into the right frontal cortex of athymic nu/nu mice (6-7-wk.-old, female). Animals were randomized into treatment groups and dosing initiated once tumors reach an average BLI of 1×10^8.
(§2) For this study, treatment began on day 7 post tumor cell implant and ceased on day 20 for a total of 14 days of dosing. Compound 101 was formulated with Solutol, DMSO and water and administered by oral gavage twice daily (BID). The dosage groups were vehicle control, 50 mg/kg BID, 25 mg/kg BID, and 10 mg/kg BID. […] Tumor size was monitored following injection of luciferin (150 mg/kg i.p.) 1-2 times weekly by bioluminescence imaging (Xenogen IVIS Spectrum Imaging System). Animals were weighed three times per week, and daily after initial weight loss is observed.

For series [6], the system named is TERT. As to the kind of experiment: TERT expression in GBM39 orthotopic xenograft tumors. It is filed as in vivo, mice. The following applies: 50, 100 or 200 mg/kg BID, oral gavage, 5 days, FIG. 3. On the procedure: (§3) In this study, Compound 101 was dosed twice daily (BID) via oral gavage to mice with GBM39 orthotopic xenograft (GBM39 cells). Tumor size was measured via Bioluminescence imaging (BLI). BLI readings were taken on treatment day 1 and day 5. Tumors were also harvested for downstream RNA analysis.
(§4) For each dose group (N=6), the following steps were performed. Briefly, athymic nu/nu mice were injected intracranially with patient-derived Glioblastoma cells. Animals began treatment once tumor BLI levels reach the range of 1×10^8-5×10^8. A dosing solution of Compound 101 (50 mg/kd, 100 mg/kd, or 200 mg/kg) or vehicle were administered by oral gavage (P.O., 50-100 uL volume) for 5 days. The dosing solutions were prepared similar to the process in Example 4. Dosing was twice daily on days 1-4. On day 5 the mice received a single dose, prior to harvest. Three hours after the last dose, mice were sacrificed and their brains were harvested and processed for analysis. […] TERT expression was also found to be reduced in all three dose groups (FIG. 3).

Series [7] in a line: Body weight in HepG2 xenograft mice. The following applies: p.o, BID for 5 days. Format: in vivo. The procedure: (§5) HepG2 (Hepatocellular carcinoma cell line containing the C228T TERTp mutation) cells were implanted into the flanks of Athymic Nude-Foxn1nu mice. Once tumors reached 250-300 mm3 in size as measured by caliper, treatment of Compound 101 was initiated. Compound 101 was administered orally (P.O.) for 5 days BID at either 25 mg/kg, 50 mg/kg, or vehicle control (N=4 per group). Body weight and tumor size were measured on days 1, 3, and 5. Two hours after final dose administration, mice were sacrificed, and tumors extracted for RNA isolation and TERT mRNA expression analysis via RT-qPCR. Both TERT and GUSB were measured using SYBR green primers and relative TERT levels were analyzed using the delta delta CT method.

Series [8] concerns TERT. As to the kind of experiment: TERT mRNA expression (RT-qPCR) in HepG2 xenograft tumors. It is filed as in vivo, mice. The settings on record: for TERT Expression (RT-qPCR) Mean Fold: p.o, BID for 5 days. On the procedure:
as §5

For series [9], the system named is HepG2 subcutaneous tumor xenograft. As to the kind of experiment: HepG2 subcutaneous tumor xenograft, tumor volume. Format: in vivo, mice. The following applies: for Mean Tumor Volume: p.o, BID for 5 days. The procedure: The pharmacodynamic (PD) profiling of Compound 101 was determined in Athymic nude mice bearing subcutaneous tumor xenograft model.
as §5

Series [10] relates to GBM39 orthotopic xenograft. Kind of series: GBM39 orthotopic xenograft, tumor BLI. The settings on record: for tumor BLI change: 5 days. It is filed as in vivo, mice. On the procedure:
as §3, §4
In a second study with Compound 101 in the GBM mice model, the 200 mg/kg dosing group was changed to a 100 mg/kg once daily dosing (QD). The baseline BLI readings were taken two days prior to 1st treatment.

The nature of series [11]: Body weight in GBM orthotopic xenograft survival study. It is filed as in vivo, mice. The settings on record: highest dosage group (50 mg/kg BID), first 3 dosing days. On the procedure: as §2
[12] abbreviates: HEK293 cells (wt TERT), 48 hours, class symbols.
The mark [13] stands for this setting: Homo sapiens, HEK293, HEK293 cells.
The mark [14] stands for this setting: oral, 25 mg/kg and 50 mg/kg BID, 5 days (both dose levels).

Structures are written as SMILES. pIC50: −log10 of the molar value. Read-outs that look alike come from different tables or passages of the source.

Here are results for seven compounds from patent US20230416202A1, “Small Molecule Compounds and Compositions” (Telo Therapeutics, Inc., priority 2020, published 2023).

In the case of `N#Cc1ccc([C@@H]2C[C@@H](CC(=O)O)CN(Cc3ccc(C(F)(F)F)cc3)C2)cc1` (racemic) [Compound 107, 2-((anti)-5-(4-cyanophenyl)-1-(4-(trifluoromethyl)benzyl)piperidin-3-yl)acetic acid], the pIC50 in series [1] was 4.60 to 5.30; in series [3] it was below 4.60. In addition, the IC50 in series [2] is 5 to 25 µM; in series [3] (setting [12]) it was above 25 µM; in series [4] (setting [13]), above 25 µM.

Turning to `CC(C(=O)O)[C@@H]1C[C@@H](c2ccc(C(F)(F)F)cc2)CN(Cc2ccc(C(F)(F)F)cc2)C1` (single isomer, unassigned) [Compound 113], the results for the pIC50 in series [1] and in series [3] were 5.30 to 6.30 and below 4.60, respectively. Moreover, the IC50 was 0.5 to 5 µM in [2], above 25 µM in series [3] (setting [12]) and 5 to 25 µM in [4] (HEK293 cells).

Compound `O=C(O)C[C@@H]1C[C@@H](c2ccc(C(F)(F)F)cc2)CN(Cc2ccc(C(F)(F)F)cc2)C1` [Compound 101, 2-((3S,5S)-1-(4-(trifluoromethyl)benzyl)-5-(4-(trifluoromethyl)phenyl)piperidin-3-yl)acetic acid] had a pIC50 in series [1] above 6.30. In addition, the “Median Survival” value in [5] (20 mg/kg/day, bid (n = 10)) was 50; in series [5] (50 mg/kg/day, bid (n = 10)) it was 62.5; in series [5] (100 mg/kg/day, bid × 3 days, then 50 mg/kg/day, qd (n = 9)) it was “Undefined”. In series [6], the “TERT expression in tumor” value is reported as “reduced”. Besides, the “% Mean body weight change” value in series [7] (25 mg/kg, DAY 1) was 0%; in series [7] (25 mg/kg, DAY 3), −4.36%; in series [7] (25 mg/kg, DAY 5), −3.65%; in [7] (50 mg/kg, DAY 1), 0%; in series [7] (50 mg/kg, DAY 3), −11.09%; in series [7] (50 mg/kg, DAY 5), −10.68%. In addition, the “wt TERT IC50 uM HEK293” value in series [3] (setting [12]) is ““++”-IA”. The “TERT Expression (RT-qPCR) Mean Fold” value in [8] (25 mg/kg) was determined as 0.21 Fold; in series [8] (50 mg/kg) it was 0.19 Fold. In addition, the “TERT mRNA in tumor” value in series [8] (setting [14]) is “TERT mRNA reduction”. Besides, the “Mean Tumor Volume” value was 252.22 mm3 in [9] (25 mg/kg, Day 1); 230.02 mm3 in series [9] (25 mg/kg, Day 3); 197.97 mm3 in [9] (25 mg/kg, Day 5); 251.37 mm3 in series [9] (50 mg/kg, Day 1); 212.58 mm3 in series [9] (50 mg/kg, Day 3); 168.34 mm3 in series [9] (50 mg/kg, Day 5). For the same compound, in [9] (setting [14]), the tumor volume change entry was “tumor regression”. The “tumor BLI change” value is given as “significant tumor reduction” in [10] (50, 100 or 200 mg/kg BID, oral gavage, FIG. 2) and “significant tumor reduction” in series [10] (second study: 50 mg/kg BID, 100 mg/kg BID or 100 mg/kg QD, FIG. 4). In addition, the tumor size entry in series [10] (second study, 100 mg/kg once daily dosing (QD)) is on record as “sufficient to reduce tumor size”. Further, the body weight result in series [11] is listed as “mice losing weight”.

`O=C(O)C[C@H]1C[C@H](c2ccc(C(F)(F)F)cc2)CN(Cc2ccc(C(F)(F)F)cc2)C1` [Compound 102, 2-((3R,5R)-1-(4-(trifluoromethyl)benzyl)-5-(4-(trifluoromethyl)phenyl)piperidin-3-yl)acetic acid]: the results for the pIC50 in series [1] and in series [3] were 4.60 to 5.30 and below 4.60, respectively. Further, the values for the IC50 in series [2], in [3] (setting [12]) and in series [4] (setting [13]) were 5 to 25 µM, above 25 µM and 5 to 25 µM, respectively.

For the compound `COc1ccc(CN2C[C@H](CC(=O)O)C[C@@H](c3ccc(C(F)(F)F)cc3)C2)cc1` [Compound 109], the pIC50 in series [1] and in series [3] was below 4.60 each time. For the same compound, the IC50 in [2] is 0.5 to 5 µM; in series [3] (setting [12]) it was above 25 µM; in series [4] (setting [13]) it was 5 to 25 µM.

Regarding `C#Cc1ccc(CN2C[C@H](CC(=O)O)C[C@@H](c3ccc(C(F)(F)F)cc3)C2)cc1` [Compound 112, 2-((3S,5S)-1-(4-ethynylbenzyl)-5-(4-(trifluoromethyl)phenyl)piperidin-3-yl)acetic acid], the pIC50 in series [1] was above 6.30; in series [3], below 4.60. Besides, the IC50 in series [2] is 0.5 to 5 µM; in series [3] (setting [12]), above 25 µM; in [4] (setting [13]), above 25 µM.

In the case of `N#Cc1ccc(CN2C[C@H](CC(=O)O)C[C@@H](c3ccc(C(F)(F)F)cc3)C2)cc1` [Compound 115, 2-((3S,5S)-1-(4-cyanobenzyl)-5-(4-(trifluoromethyl)phenyl)piperidin-3-yl)acetic acid], the pIC50 was 5.30 to 6.30 in series [1] and below 4.60 in series [3]. Besides, the IC50 in series [2] is 0.5 to 5 µM; in series [3] (setting [12]), above 25 µM; in series [4] (setting [13]), 5 to 25 µM.

As a reminder, the pIC50 is the IC50 on a negative log10 scale, so that one unit is a factor of ten. A word on the IC50: it is the concentration that gives 50% inhibition.
